Active and inactive are the calls of the source.

What all share (type): functional
In one test the target is Aurora kinase B (Homo sapiens, UniProt Q96GD4).
Another test deals with T1, Aurora kinase A (Homo sapiens, UniProt O14965).
T1 sequence (O14965 whole entry): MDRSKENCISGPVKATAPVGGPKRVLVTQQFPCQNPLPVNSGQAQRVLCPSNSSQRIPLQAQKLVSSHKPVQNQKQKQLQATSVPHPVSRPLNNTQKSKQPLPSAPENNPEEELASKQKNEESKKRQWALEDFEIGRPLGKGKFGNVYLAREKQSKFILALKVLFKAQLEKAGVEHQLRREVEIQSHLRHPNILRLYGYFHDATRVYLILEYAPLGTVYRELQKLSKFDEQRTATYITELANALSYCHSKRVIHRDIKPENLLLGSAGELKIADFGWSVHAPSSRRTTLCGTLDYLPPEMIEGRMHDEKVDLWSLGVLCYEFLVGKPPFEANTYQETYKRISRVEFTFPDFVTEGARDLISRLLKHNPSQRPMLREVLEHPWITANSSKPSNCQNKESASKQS

Test [1] addresses Vascular endothelial growth factor receptor 2 (Homo sapiens, UniProt P35968).
For test [2], the target named is Ras and Rab interactor 1/Tyrosine-protein kinase ABL1 (Homo sapiens, UniProt P00519+Q13671).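 Note: biochemical TR-FRET dose-response test measuring inhibition of binding between Rin1 and Abl proteins.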
Chain of Ras and Rab interactor 1/Tyrosine-protein kinase ABL1 (P00519 whole entry): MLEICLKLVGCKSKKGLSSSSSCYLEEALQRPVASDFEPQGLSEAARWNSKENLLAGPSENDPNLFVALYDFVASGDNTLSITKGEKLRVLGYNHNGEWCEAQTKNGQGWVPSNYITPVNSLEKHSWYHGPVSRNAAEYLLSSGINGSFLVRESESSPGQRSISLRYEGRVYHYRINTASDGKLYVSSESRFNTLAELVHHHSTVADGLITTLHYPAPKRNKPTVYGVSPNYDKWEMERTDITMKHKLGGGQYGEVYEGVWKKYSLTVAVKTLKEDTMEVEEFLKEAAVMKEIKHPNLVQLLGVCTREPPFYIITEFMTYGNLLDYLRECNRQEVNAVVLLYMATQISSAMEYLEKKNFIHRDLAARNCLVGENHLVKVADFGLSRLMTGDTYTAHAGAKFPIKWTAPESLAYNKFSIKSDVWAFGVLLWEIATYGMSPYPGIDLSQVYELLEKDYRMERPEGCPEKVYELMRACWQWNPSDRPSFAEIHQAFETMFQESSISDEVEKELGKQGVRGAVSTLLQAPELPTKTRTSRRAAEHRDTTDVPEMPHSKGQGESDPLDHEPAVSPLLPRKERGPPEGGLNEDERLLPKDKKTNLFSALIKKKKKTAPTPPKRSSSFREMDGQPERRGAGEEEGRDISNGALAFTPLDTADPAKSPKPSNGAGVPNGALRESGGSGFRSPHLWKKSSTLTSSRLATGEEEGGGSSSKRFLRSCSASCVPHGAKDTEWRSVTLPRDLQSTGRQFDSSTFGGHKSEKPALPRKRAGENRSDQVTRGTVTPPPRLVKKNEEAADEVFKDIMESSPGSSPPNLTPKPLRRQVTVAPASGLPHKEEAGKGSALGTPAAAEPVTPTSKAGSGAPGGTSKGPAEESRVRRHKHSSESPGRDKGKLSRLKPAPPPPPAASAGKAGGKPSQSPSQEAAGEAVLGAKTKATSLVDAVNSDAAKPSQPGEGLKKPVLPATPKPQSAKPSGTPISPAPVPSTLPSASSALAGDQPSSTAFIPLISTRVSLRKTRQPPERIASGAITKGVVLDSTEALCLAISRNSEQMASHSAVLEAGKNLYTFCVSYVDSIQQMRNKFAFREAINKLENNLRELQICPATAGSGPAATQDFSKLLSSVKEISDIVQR
Chain of Ras and Rab interactor 1/Tyrosine-protein kinase ABL1 (Q13671 whole entry): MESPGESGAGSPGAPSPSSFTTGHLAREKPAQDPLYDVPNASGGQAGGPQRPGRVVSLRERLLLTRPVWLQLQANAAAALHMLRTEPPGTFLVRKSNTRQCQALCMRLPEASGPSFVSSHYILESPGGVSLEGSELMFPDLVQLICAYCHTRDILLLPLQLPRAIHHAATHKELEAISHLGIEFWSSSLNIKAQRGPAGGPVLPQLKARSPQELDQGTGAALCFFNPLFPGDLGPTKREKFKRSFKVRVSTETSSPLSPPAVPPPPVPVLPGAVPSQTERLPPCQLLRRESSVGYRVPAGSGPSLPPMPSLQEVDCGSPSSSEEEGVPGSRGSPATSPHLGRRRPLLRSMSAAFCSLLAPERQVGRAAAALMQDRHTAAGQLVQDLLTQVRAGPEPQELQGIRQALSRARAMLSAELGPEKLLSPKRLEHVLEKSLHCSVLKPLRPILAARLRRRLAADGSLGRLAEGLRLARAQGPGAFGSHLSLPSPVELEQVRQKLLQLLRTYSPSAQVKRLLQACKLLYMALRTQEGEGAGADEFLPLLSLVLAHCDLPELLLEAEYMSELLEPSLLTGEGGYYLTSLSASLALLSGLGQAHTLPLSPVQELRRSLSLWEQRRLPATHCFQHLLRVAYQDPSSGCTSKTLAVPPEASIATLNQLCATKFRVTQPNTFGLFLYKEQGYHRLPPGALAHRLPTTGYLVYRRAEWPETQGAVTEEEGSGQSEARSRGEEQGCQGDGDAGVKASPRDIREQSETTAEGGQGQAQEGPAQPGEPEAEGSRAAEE
Test [3] is described as follows: THP-1 cell cytotoxicity, cytotoxicity control, set 4 (AID 504911). The conditions noted are these: Mycobacterium tuberculosis.
Test [4] deals with T2, High affinity choline transporter 1 (Homo sapiens, UniProt Q9GZV3).
T2 sequence (Q9GZV3 whole entry): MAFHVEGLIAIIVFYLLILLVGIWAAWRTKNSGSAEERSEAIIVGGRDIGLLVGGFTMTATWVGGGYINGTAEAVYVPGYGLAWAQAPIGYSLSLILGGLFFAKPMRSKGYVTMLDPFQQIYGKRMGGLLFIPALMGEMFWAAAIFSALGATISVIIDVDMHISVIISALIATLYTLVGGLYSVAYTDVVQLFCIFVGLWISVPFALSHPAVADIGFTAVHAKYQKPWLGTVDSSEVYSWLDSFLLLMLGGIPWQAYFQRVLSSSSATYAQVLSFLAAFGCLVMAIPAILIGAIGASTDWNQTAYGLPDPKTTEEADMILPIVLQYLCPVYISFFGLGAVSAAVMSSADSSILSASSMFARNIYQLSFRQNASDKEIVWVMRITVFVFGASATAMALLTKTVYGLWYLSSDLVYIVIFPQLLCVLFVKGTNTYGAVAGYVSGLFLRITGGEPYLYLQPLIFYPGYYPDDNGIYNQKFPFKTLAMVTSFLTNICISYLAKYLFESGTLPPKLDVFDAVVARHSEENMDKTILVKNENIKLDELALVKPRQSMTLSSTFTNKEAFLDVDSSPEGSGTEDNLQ
The experiment in a line: human choline transporter radiolabel uptake blockers – cell-based, 3H-choline uptake, CHT LV-AA trafficking mutant, CRC, dose response (AID 602208).

Test [5] concerns the target T2, High affinity choline transporter 1. The experiment in a line: human choline transporter blockers, potency – cell-based, 5-point CRC, membrane potential dye, dose response (AID 504840).
For test [6] the target is unchanged. The experiment in a line: human choline transporter blockers, potency – cell-based, 10-point CRC, membrane potential dye, dose response (AID 588401).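 Note: membrane potential dye fluorescence of choline-evoked depolarization via CHT.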
Test [7] deals with T3, Sentrin-specific protease 8 (Homo sapiens, UniProt Q96LD8).
T3 sequence (Q96LD8 whole entry): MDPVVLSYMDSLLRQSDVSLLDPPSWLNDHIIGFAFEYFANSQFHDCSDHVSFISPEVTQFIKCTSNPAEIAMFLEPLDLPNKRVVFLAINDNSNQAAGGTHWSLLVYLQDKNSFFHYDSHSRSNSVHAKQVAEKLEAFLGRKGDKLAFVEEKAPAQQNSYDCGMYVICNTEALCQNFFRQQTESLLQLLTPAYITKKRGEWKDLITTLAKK

For the next test, the target named is T4, Caspase-3 (Homo sapiens, UniProt P42574).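 Note: Dose-response selectivity test against caspase-3 for candidate inhibitors of sentrin-specific proteases (SENPs).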
T4 sequence (P42574 whole entry): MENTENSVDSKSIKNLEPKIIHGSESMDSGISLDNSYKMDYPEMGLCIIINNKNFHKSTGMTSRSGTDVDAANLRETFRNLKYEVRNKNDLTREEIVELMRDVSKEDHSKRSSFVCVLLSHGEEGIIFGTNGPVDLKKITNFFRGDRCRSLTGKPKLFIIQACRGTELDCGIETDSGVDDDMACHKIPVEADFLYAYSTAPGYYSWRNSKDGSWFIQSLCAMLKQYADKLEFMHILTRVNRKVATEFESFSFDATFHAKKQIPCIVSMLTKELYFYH

The target of test [8] is T5, Sentrin-specific protease 6 (Homo sapiens, UniProt Q9GZR1).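 Note: Luminescence-based dose-response confirmatory assay of SENP6 inhibition, following up an ultra-high-throughput screen.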
T5 sequence (Q9GZR1 whole entry): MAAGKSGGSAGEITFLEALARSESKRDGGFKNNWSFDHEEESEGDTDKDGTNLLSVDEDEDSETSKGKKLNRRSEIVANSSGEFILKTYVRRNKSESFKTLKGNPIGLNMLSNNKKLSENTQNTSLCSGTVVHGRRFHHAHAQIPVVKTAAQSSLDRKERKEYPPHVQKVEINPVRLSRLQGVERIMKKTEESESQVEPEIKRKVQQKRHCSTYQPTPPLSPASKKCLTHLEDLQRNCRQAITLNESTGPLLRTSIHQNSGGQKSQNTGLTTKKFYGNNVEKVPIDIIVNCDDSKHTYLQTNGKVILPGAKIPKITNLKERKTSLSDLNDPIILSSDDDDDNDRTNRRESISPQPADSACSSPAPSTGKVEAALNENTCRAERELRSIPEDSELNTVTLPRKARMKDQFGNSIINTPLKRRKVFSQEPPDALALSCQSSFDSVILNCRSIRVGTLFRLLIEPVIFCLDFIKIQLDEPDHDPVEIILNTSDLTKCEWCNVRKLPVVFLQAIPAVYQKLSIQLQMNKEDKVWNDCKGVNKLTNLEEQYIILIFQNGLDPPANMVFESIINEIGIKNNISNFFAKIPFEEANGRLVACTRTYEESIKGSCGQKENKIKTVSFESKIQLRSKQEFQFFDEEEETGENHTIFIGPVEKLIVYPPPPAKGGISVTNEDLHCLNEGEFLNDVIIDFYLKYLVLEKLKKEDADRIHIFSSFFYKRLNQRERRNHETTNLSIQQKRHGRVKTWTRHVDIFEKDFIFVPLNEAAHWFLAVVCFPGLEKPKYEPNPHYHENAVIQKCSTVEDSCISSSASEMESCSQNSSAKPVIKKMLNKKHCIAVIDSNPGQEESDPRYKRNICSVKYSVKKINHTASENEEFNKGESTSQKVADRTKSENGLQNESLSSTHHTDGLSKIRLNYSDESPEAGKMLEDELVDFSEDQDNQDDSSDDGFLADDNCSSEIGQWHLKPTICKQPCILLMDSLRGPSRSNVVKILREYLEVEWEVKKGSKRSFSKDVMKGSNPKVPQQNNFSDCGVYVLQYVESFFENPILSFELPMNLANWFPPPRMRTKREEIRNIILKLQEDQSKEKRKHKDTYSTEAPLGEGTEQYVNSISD

Test [9] addresses T3, Sentrin-specific protease 8. The source holds these as a separate data set.
Test [10] addresses Mitochondrial peptide methionine sulfoxide reductase (Bos taurus, UniProt P54149). The experiment in a line: Absorbance-based biochemical high throughput dose response assay for activators of Methionine sulfoxide reductase A (MsrA).
Test [11] has as its target T6, Sentrin-specific protease 7 (Homo sapiens, UniProt Q9BQF6).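 Note: Luminescence-based dose-response confirmation of ultra-high-throughput screening hits, measuring inhibition of SENP7.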
T6 sequence (Q9BQF6 whole entry): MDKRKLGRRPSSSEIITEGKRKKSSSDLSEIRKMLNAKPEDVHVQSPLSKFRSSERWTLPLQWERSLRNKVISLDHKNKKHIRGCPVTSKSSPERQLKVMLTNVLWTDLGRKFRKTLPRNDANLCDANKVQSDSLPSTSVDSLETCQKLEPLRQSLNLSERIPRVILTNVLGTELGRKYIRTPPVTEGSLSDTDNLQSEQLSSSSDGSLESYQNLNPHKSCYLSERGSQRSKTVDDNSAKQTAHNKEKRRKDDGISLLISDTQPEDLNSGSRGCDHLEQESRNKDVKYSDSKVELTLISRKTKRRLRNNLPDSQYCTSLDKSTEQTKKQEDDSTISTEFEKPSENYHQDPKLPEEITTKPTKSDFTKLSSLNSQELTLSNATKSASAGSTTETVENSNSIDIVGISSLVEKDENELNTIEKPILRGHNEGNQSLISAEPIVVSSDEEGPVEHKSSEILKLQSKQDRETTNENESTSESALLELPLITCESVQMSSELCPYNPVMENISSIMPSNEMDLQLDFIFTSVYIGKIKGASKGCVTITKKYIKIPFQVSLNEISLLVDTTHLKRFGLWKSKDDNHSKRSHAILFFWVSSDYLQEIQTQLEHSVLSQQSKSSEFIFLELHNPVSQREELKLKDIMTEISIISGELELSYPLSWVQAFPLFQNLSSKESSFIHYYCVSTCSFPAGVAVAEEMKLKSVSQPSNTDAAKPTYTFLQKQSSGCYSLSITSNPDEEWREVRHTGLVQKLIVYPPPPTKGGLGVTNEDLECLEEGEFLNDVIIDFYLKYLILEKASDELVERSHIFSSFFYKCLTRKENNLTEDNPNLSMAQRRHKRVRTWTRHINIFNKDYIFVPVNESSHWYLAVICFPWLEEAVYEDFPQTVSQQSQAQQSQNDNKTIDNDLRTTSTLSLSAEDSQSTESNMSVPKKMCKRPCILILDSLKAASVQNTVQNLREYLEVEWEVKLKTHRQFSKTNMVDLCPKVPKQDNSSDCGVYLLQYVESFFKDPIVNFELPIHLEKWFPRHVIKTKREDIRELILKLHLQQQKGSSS

Chain of Mitochondrial peptide methionine sulfoxide reductase (P54149 whole entry): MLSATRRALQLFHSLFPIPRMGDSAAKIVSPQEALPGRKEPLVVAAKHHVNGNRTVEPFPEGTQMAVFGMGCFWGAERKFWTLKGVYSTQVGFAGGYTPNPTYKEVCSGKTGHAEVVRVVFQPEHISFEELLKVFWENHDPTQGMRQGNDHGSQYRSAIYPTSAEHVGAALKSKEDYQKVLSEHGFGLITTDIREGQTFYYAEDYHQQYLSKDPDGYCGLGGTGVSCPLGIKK
Chain of Vascular endothelial growth factor receptor 2 (P35968 whole entry): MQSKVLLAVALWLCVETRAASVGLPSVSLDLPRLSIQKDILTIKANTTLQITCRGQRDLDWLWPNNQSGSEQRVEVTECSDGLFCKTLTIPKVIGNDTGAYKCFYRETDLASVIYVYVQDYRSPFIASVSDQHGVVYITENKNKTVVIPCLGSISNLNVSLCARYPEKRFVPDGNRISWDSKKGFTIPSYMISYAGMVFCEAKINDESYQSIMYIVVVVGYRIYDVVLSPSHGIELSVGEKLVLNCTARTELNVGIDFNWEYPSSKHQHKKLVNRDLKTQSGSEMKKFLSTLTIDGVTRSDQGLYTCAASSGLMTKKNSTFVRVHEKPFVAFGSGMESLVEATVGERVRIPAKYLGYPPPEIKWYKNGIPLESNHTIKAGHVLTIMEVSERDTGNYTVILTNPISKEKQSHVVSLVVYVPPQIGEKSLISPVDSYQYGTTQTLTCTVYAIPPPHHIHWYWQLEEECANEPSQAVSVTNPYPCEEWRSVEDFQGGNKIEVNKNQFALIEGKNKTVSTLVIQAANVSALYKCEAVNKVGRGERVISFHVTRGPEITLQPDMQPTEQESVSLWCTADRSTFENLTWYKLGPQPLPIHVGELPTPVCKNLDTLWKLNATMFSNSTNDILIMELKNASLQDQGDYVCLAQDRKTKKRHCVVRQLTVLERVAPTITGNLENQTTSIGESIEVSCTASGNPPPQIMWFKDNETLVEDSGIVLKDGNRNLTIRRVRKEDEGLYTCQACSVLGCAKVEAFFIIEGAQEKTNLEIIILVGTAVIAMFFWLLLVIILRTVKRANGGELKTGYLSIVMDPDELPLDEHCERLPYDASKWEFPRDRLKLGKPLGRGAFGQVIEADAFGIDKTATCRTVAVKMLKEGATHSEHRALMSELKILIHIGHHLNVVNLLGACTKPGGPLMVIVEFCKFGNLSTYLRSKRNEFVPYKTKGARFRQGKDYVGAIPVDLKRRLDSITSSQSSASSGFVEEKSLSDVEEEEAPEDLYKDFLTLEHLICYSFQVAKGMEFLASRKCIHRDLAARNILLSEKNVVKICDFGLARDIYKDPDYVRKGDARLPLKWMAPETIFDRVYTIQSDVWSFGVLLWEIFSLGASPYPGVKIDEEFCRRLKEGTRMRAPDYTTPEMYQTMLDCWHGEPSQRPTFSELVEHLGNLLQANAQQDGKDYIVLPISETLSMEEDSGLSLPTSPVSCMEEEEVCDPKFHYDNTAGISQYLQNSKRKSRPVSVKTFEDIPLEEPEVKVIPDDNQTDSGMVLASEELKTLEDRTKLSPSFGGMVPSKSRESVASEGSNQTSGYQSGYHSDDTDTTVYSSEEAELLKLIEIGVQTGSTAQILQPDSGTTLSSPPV
Chain of Aurora kinase B (Q96GD4 whole entry): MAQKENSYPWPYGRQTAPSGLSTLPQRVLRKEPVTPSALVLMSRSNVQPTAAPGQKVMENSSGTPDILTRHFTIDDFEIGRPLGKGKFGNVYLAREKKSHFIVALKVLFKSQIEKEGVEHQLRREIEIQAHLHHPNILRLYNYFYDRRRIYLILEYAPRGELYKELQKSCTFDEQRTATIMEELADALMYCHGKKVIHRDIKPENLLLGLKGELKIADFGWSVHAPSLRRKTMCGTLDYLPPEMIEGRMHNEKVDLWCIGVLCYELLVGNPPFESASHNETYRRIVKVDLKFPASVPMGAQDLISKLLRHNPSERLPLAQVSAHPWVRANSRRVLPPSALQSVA

For `COc1cc(Nc2ncc(C(F)(F)F)c(OC)n2)cc(OC)c1OC`, the values for the Ki (on Aurora kinase B; at Aurora kinase A; in test [1]) were 0.0158 µM (active), 0.0501 µM (active) and 0.631 µM (active), respectively.

For `N#Cc1ccccc1Sc1ccccc1C(=O)NCC(c1ccco1)N1CCCC1` (centres undefined), the IC50 in test [2] was 2.48 µM (active).

For the molecule `CCSc1nc(C)c(C)c(O)n1`, the CC50 in [3] was > 100 µM (active).

As for `CC(NC(=O)c1ccc(OC2CCN(Cc3ccccn3)CC2)cc1)c1ccccc1` (centres undefined), the figures for the IC50 in [4], in test [5] and in test [6] were 1.79 µM (active), 1.6 µM (active) and 1.26 µM (active), respectively.

For `O=C(OCC(=O)N1CCN(c2ccccc2)CC1)c1ccc([N+](=O)[O-])s1`, the IC50 in test [7] is 2.31 µM (active); at Caspase-3, 10.2 µM (active); in [8], 6.71 µM (active); in test [9] it was 5.37 µM (active); in [11], 13.8 µM (active). Also, in test [10], the EC50 is 24.8 µM (inactive).

The Ki is the equilibrium dissociation constant of an inhibitor or competing ligand from its target. The IC50 is the concentration that gives 50% inhibition. For orientation: CC50 means the concentration at which the toxic effect on the cells reaches its halfway point. The term EC50 denotes the concentration needed to bring the measured effect to its halfway point.
